Bridge positions count the residues as written; N and C are the ends. Square brackets hold non-standard residues; d marks the D form. Ends that are not written are not given here. Peptide text beside a SMILES is read from it. R8 = C=CCCCCCC[C@@](C)(N)C(=O)O; S5 = C=CCCC[C@](C)(N)C(=O)O
Assays:
α-chymotrypsin = α-chymotrypsin (Bos taurus, UniProt P00766); assay: in vitro
Procedure: Peptides in DMSO solution (1 mM) was mixed with α-chymotrypsin in PBS buffer (0.5 ng/μl) containing 2 mM CaCl2 and incubated at 37°C. The percentage of peptide was measured by HPLC at 0, 5, 10, 20, 30, and 60 min([Wang et al., 2020]).

[1] = Circular dichroism spectroscopy, percent helicity; format: physicochemical; details: CD, TFE/water (1:1), 0.1 mg/ml, 20°C
Procedure: Peptides were dissolved in TFE/water (1:1, v/v, 0.1 mg/ml). CD data were recorded in 10-mm path length, a quartz cell at 20°C. Percent helicity was calculated by the following equation ([Wang et al., 2006]). α=[θ]222/[θ]max×100% [θ]222 is the molar ellipticity of 222 nm; [θ]max = (−44,000 + 250T) (1 − k/n), where k = 4, n is the numbers of amino acids, and T = 20°C.

MCF-7 = details: read-out: IC50 MCF-7; CCK-8, 48 h
Procedure: (§1) MCF-7, HUH-7, U87, and Nthy-ori 3-1 cell lines were used to test cell viability. All the cell lines were cultured in a humid environment at 37°C with 5% CO2. The anticancer activity of B1 and its derivatives were evaluated by the CCK-8 reagent. All peptides tested were dissolved in DMSO and finally added to each well in 1‰ volume. The cells were seeded in a 96-well plate at a number of 5 × 10^3 cells per well. After overnight incubation, they were administered with different concentrations of peptides. Ten percent CCK-8 solution without FBS was added to each well after 48 h. After incubation at 37°C for 30 min, the optical density (OD) at 450 nm was recorded with a microplate reader ([Deng et al., 2015]).

U87 = details: read-out: IC50 U87; CCK-8, 48 h
Procedure: as §1

HUH-7 = details: read-out: IC50 HUH-7; CCK-8, 48 h
Procedure: as §1

rabbit red blood cells = details: 4% rabbit red blood cells, 1 h, 37°C
Procedure: Two hundred microliters of 4% rabbit red blood cells in a 96-well plate was added different concentrations of peptides. After 1 h of incubation at 37°C and following centrifugation, the release of hemoglobin was monitored by the absorbance at 450 nm of supernatant. Zero hemolysis was determined without adding any other reagents, and 100% hemolysis was determined in 10% Triton X-100. Hemolysis percentage hemolysis was calculated as: (Apeptide − Ablank)/(ATriton − Ablank) × 100%. All hemolysis determinations were conducted in three repeated experiments ([Deng et al., 2015]).

[2] = α-chymotrypsin (0.5 ng/μl) in PBS buffer

In the case of `CC(C)C[C@H](NC(=O)[C@H](CCCCN)NC(=O)[C@H](CCCNC(=N)N)NC(=O)[C@H](Cc1ccccc1)NC(=O)[C@H](Cc1ccccc1)NC(=O)[C@]1(C)CCC/C=C\CCC[C@](C)(NC(=O)[C@@H](N)C(C)C)C(=O)N[C@@H](CCCNC(=N)N)C(=O)N[C@@H](Cc2ccccc2)C(=O)N[C@@H](CCCCN)C(=O)N1)C(=O)N[C@@H](CCCCN)C(=O)N[C@@H](CCCCN)C(=O)N[C@@H](CC(C)C)C(=O)N[C@H](C(N)=O)C(C)C` [B1-L-1, VS5RFKS5FFRKLKKLV-NH2] (H-V[S5]RFK[S5]FFRKLKKLV-NH2; staple (Z) 2-6), the half-life (α-chymotrypsin; α-chymotrypsin) is reported as > 1 h and the “Helicity (%)” value [1] is reported as 47.2%.

With “VKRFKKFFRKLKKLV-NH2 [B1-Leu, VKRFKKFFRKLKKLV-NH2]” the IC50 (MCF-7) was 13.4 ± 0.53 µM, the IC50 (U87) was 16.2 ± 3.32 µM and the IC50 (HUH-7) was 11.8 ± 0.72 µM. For the same molecule, the “HC50, half hemolysis concentration” value (rabbit red blood cells) was >80 µM, the half-life (α-chymotrypsin; [2]) was 0.142 h and the “Degradation during protease exposure” value (α-chymotrypsin; α-chymotrypsin, 1 h) was “completely degraded”. The “Helicity (%)” value [1] was 23.5%.

Molecule `CC(C)C[C@@H]1NC(=O)[C@H](CCCCN)NC(=O)[C@@](C)(NC(=O)[C@H](Cc2ccccc2)NC(=O)[C@H](Cc2ccccc2)NC(=O)[C@H](CCCCN)NC(=O)[C@H](CCCCN)NC(=O)[C@H](Cc2ccccc2)NC(=O)[C@H](CCCNC(=N)N)NC(=O)[C@H](CCCCN)NC(=O)[C@@H](N)C(C)C)CCCC=CCCC[C@@](C)(C(=O)N[C@@H](CC(C)C)C(=O)N[C@H](C(N)=O)C(C)C)NC(=O)[C@H](CCCCN)NC1=O` [B1-L-4, VKRFKKFFS5KLKS5LV-NH2] (H-VKRFKKFF[S5]KLK[S5]LV-NH2; staple 9-13; N-terminus assumed) has an IC50 (MCF-7) of 15.2 ± 1.02 µM, an IC50 (U87) of 17.9 ± 3.23 µM and an IC50 (HUH-7) of 13.4 ± 1.92 µM. The “HC50, half hemolysis concentration” value (rabbit red blood cells) was >80 µM, the half-life (α-chymotrypsin; [2]) was > 1 h and the “Helicity (%)” value [1] was 35%.

In the case of `CC(C)C[C@H](NC(=O)[C@H](CCCCN)NC(=O)[C@H](CCCCN)NC(=O)[C@H](CC(C)C)NC(=O)[C@]1(C)CCCC=CCCC[C@](C)(NC(=O)[C@H](CCCCN)NC(=O)[C@H](Cc2ccccc2)NC(=O)[C@H](CCCNC(=N)N)NC(=O)[C@H](CCCCN)NC(=O)[C@@H](N)C(C)C)C(=O)N[C@@H](Cc2ccccc2)C(=O)N[C@@H](Cc2ccccc2)C(=O)N[C@@H](CCCNC(=N)N)C(=O)N1)C(=O)N[C@H](C(N)=O)C(C)C` [B1-L-3, VKRFKS5FFRS5LKKLV-NH2] (H-VKRFK[S5]FFR[S5]LKKLV-NH2; staple 6-10; N-terminus assumed), the IC50 (MCF-7) is reported as 5.48 ± 0.89 µM, the IC50 (U87) is reported as 3.59 ± 1.2 µM and the IC50 (HUH-7) is reported as 5.96 ± 0.54 µM. For the same molecule, the “HC50, half hemolysis concentration” value (rabbit red blood cells) was >80 µM, the half-life (α-chymotrypsin; [2]) was > 1 h and the “Helicity (%)” value [1] was 37%.

`CC(C)C[C@@H]1NC(=O)[C@H](CCCCN)NC(=O)[C@H](CCCNC(=N)N)NC(=O)[C@H](Cc2ccccc2)NC(=O)[C@H](Cc2ccccc2)NC(=O)[C@](C)(NC(=O)[C@H](CCCCN)NC(=O)[C@H](Cc2ccccc2)NC(=O)[C@H](CCCNC(=N)N)NC(=O)[C@H](CCCCN)NC(=O)[C@@H](N)C(C)C)CCCCCCC=CCCC[C@@](C)(C(=O)N[C@@H](CC(C)C)C(=O)N[C@H](C(N)=O)C(C)C)NC(=O)[C@H](CCCCN)NC1=O` [B1-L-7, VKRFKR8FFRKLKS5LV-NH2] (H-VKRFK[R8]FFRKLK[S5]LV-NH2; staple 6-13; N-terminus assumed) gave an IC50 (MCF-7) of 13.4 ± 1.22 µM, an IC50 (U87) of 12.7 ± 1.63 µM and an IC50 (HUH-7) of 7.49 ± 1.2 µM. The “HC50, half hemolysis concentration” value (rabbit red blood cells) was >80 µM, the half-life (α-chymotrypsin; [2]) was > 1 h and the “Helicity (%)” value [1] was 31.6%.

`CC(C)C[C@H](NC(=O)[C@H](CCCCN)NC(=O)[C@]1(C)CCCC=CCCCCCC[C@@](C)(NC(=O)[C@@H](N)C(C)C)C(=O)N[C@@H](CCCNC(=N)N)C(=O)N[C@@H](Cc2ccccc2)C(=O)N[C@@H](CCCCN)C(=O)N[C@@H](CCCCN)C(=O)N[C@@H](Cc2ccccc2)C(=O)N[C@@H](Cc2ccccc2)C(=O)N1)C(=O)N[C@@H](CCCCN)C(=O)N[C@@H](CCCCN)C(=O)N[C@@H](CC(C)C)C(=O)N[C@H](C(N)=O)C(C)C` [B1-L-5, VR8RFKKFFS5KLKKLV-NH2] (H-V[R8]RFKKFF[S5]KLKKLV-NH2; staple 2-9; N-terminus assumed) gave an IC50 (MCF-7) of 14 ± 0.73 µM, an IC50 (U87) of 14.3 ± 2.35 µM and an IC50 (HUH-7) of 13.8 ± 1.53 µM. The “HC50, half hemolysis concentration” value (rabbit red blood cells) was >80 µM, the half-life (α-chymotrypsin; [2]) was > 1 h and the “Helicity (%)” value [1] was 24.8%.
